One may read the EC50 as the concentration that produces a half-maximal response. As a reminder, the Emax is the size of the effect at its maximum, as opposed to the concentration needed.

Data on two compounds can be found in patent US20230265151A1, “GIP/GLP1 CO-AGONIST COMPOUNDS” (priority 2020, published 2023).

Structures are written as SMILES. Read-outs that look alike come from different tables or passages of the source. Some results are limits rather than exact numbers.

Type in all cases: cell-based
In assay [1] the target is T1, hGCGR (Homo sapiens, UniProt P47871).
T1 construct: expressed in transfected cells
Nature of the assay: Functional cAMP formation (HTRF) in HEK-293 clonal cells expressing hGCGR, 0.1% bovine casein, without or with 1.0% human serum albumin. The conditions noted are these: geometric mean, read-out: hGCGR EC50, nM (SEM, n). In outline:
(§1)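 Readings of the HTRF 665/620 nm ratio, which falls as cAMP rises, were converted to nM cAMP using a standard curve after 30 min peptide exposure at 37° C.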
For orientation: cAMP levels reflect the balance of adenylyl cyclase and phosphodiesterase activity.

Assay [2] deals with hGLP-1R (Homo sapiens, UniProt P43220). Nature of the assay: Functional cAMP formation (HTRF) in HEK-293 clonal cells expressing hGLP-1R, 0.1% bovine casein, without or with 1.0% human serum albumin. Also noted: expressed in transfected cells. An outline of the steps: as §1
Assay [3] concerns the target T2, hGIPR (Homo sapiens, UniProt P48546).
T2 construct: expressed in transfected cells
T2 sequence (P48546 22-466): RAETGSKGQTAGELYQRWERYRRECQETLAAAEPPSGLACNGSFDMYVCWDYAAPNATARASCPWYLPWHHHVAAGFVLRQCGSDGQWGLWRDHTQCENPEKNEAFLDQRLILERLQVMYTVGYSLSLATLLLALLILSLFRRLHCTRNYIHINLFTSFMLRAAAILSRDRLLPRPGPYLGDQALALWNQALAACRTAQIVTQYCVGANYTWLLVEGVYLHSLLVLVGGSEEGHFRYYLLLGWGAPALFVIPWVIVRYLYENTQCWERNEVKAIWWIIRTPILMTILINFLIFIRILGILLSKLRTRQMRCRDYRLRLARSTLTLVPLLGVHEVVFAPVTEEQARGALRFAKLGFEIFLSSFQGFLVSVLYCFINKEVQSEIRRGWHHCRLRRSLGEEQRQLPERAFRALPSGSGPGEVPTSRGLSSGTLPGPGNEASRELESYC
Nature of the assay: Functional cAMP formation (HTRF) in HEK-293 clonal cells expressing hGIPR, 0.1% bovine casein, without or with 1.0% human serum albumin. As to conditions: HEK293, percent of maximal response to GIP(1-42)NH2; 37° C., 0.1% bovine casein; arithmetic mean; read-out: hGIPR Emax, % ± SEM. In outline: as §1

[4] abbreviates: cAMP, incubated at 37° C., 0.1% bovine casein (no human serum albumin).

T1 sequence (P47871 26-477): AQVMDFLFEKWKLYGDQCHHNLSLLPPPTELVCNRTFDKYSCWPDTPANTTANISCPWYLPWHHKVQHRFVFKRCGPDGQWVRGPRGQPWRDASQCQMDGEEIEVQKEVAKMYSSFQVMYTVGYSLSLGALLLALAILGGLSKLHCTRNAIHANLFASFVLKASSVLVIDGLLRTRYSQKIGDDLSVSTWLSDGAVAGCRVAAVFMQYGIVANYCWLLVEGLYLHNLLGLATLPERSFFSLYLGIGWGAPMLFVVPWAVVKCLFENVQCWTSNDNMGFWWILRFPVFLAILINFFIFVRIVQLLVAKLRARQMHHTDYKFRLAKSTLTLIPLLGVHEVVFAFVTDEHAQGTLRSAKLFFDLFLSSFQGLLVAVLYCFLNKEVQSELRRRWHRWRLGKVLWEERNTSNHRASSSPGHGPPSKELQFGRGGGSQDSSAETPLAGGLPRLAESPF
Sequence of hGLP-1R (P43220 24-463): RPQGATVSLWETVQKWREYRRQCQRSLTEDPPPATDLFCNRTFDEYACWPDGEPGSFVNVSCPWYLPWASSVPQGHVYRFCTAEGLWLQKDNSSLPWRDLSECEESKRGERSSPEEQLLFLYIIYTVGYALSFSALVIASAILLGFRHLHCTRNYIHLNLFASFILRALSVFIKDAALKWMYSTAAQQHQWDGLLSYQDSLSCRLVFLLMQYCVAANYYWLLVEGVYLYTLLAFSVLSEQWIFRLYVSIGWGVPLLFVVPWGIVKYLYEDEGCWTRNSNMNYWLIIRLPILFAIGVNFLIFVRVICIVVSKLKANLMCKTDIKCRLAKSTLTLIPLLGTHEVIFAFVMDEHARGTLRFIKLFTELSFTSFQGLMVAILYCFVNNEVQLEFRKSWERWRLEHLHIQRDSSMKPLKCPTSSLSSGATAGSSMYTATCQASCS

With `CC[C@H](C)[C@H](NC(=O)[C@H](CC(C)C)NC(=O)[C@](C)(Cc1ccc(O)cc1)NC(=O)[C@@H](CCC(=O)O)NC(=O)[C@@H](NC(=O)[C@H](Cc1ccccc1)NC(=O)[C@H](CCC(=O)O)NC(=O)C1(NC(=O)[C@H](CCC(N)=O)NC(=O)[C@H](C)NC(=O)[C@H](CCCCNC(=O)COCCOCCNC(=O)COCCOCCNC(=O)CC[C@H](NC(=O)CCCCCCCCCCCCC(=O)O)C(=O)O)NC(=O)[C@H](CCCN)NC(=O)[C@H](CC(=O)O)NC(=O)[C@H](CC(C)C)NC(=O)[C@](C)(CC(C)C)NC(=O)[C@@H](NC(=O)[C@H](CO)NC(=O)[C@H](Cc2ccncc2)NC(=O)[C@H](CC(=O)O)NC(=O)[C@H](CO)NC(=O)[C@@H](NC(=O)[C@](C)(Cc2ccccc2F)NC(=O)[C@@H](NC(=O)CNC(=O)[C@H](CCC(=O)O)NC(=O)C(C)(C)NC(=O)[C@@H](N)Cc2ccc(O)cc2)[C@@H](C)O)[C@@H](C)O)[C@@H](C)CC)CCCC1)[C@@H](C)CC)C(=O)N[C@@H](CCC(=O)O)C(=O)NCC(=O)NCC(=O)N[C@@H](CCCCNC(=O)COCCOCCNC(=O)COCCOCCNC(=O)CC[C@H](NC(=O)CCCCCCCCCCCCC(=O)O)C(=O)O)C(=O)N[C@@H](CO)C(=O)N[C@@H](CO)C(=O)NCC(=O)N[C@@H](C)C(=O)N1CCC[C@H]1C(=O)N1CCC[C@H]1C(=O)N1CCC[C@H]1C(=O)N[C@@H](CO)C(N)=O` [Example 170], the EC50 was greater than 9950 nM in assay [1] (setting [4]) and 1.03 nM in assay [2] (cAMP, incubated at 37° C., 0.1% bovine casein (no human serum albumin), geometric mean, read-out: hGLP-1R EC50, nM (SEM, n)). The Emax in assay [3] worked out at 93.9%.

On to `CC[C@H](C)[C@H](NC(=O)[C@H](CC(C)C)NC(=O)[C@](C)(Cc1ccc(O)cc1)NC(=O)[C@@H](CCC(=O)O)NC(=O)[C@@H](NC(=O)[C@H](Cc1ccc2ccccc2c1)NC(=O)[C@H](CCC(=O)O)NC(=O)C(C)(C)NC(=O)[C@H](CCC(N)=O)NC(=O)[C@H](C)NC(=O)[C@H](CCCCNC(=O)COCCOCCNC(=O)COCCOCCNC(=O)CC[C@H](NC(=O)CCCCCCCCCCCCC(=O)O)C(=O)O)NC(=O)[C@H](CCCN)NC(=O)[C@H](CC(=O)O)NC(=O)[C@H](CC(C)C)NC(=O)[C@](C)(CC(C)C)NC(=O)[C@@H](NC(=O)[C@H](CO)NC(=O)[C@H](Cc1ccncc1)NC(=O)[C@H](CC(=O)O)NC(=O)[C@H](CO)NC(=O)[C@@H](NC(=O)[C@](C)(Cc1ccccc1F)NC(=O)[C@@H](NC(=O)CNC(=O)[C@H](CCC(=O)O)NC(=O)C(C)(C)NC(=O)[C@@H](N)Cc1ccc(O)cc1)[C@@H](C)O)[C@@H](C)O)[C@@H](C)CC)[C@@H](C)CC)C(=O)N[C@@H](CCC(=O)O)C(=O)NCC(=O)NCC(=O)N[C@@H](CCCCNC(=O)COCCOCCNC(=O)COCCOCCNC(=O)CC[C@H](NC(=O)CCCCCCCCCCCCC(=O)O)C(=O)O)C(=O)N[C@@H](CO)C(=O)N[C@@H](CO)C(=O)NCC(=O)N[C@@H](C)C(=O)N1CCC[C@H]1C(=O)N1CCC[C@H]1C(=O)N1CCC[C@H]1C(=O)N[C@@H](CO)C(N)=O` [Example 99], for which the EC50 in assay [1] (0.1% bovine casein and 1.0% human serum albumin, 37° C.) was greater than 9950 nM; in assay [1] (setting [4]), greater than 9950 nM. Besides, the Emax in assay [2] (HEK293, 0.1% bovine casein and 1.0% human serum albumin, 37° C., percent of maximal response to GLP-1(7-36)NH2, read-out: hGLP-1R Emax, % ± SEM) amounted to 81.1%; in assay [3], 93.4 ± 1.02%.
